This assay deals with primary human osteoclast precursors. The experiment in a line: In vitro bone resorption assay in OSTEOASSAY plate (CTx collagen resorption product in supernatant, EIA). Format: cell-based. Conditions: supernatants assayed after an additional 2 days, M-CSF and soluble RANK ligand. How it is done:
OSTEOASSAY™ plates, which contain adherent particles (≦0.125 mm dimension) of native human bone, were seeded with 10,000 primary human osteoclast precursors (“Poietics™ Osteoclast Precursors,” product no. 2T-110, Cambrex Corporation) per well in medium containing M-CSF+/−soluble RANK ligand and cultured at 37° C. for 5-7 days. Culture media were changed on day 5, 6 or 7 and the cultures were continued for another 1 to 3 days.
The release into the culture supernatants of collagen type I peptides from the bone particles was measured quantitatively by enzyme immunoassay (EIA). Three different commercially available assay kits for the measurement of resorption-specific collagen resorption fragments were evaluated: the METRA™ Helical Peptide EIA kit (Quidel), the Serum CROSSLAPS® ELISA (Nordic Bioscience) kit, and the OSTEOMARK® NTx (Ostex) kit. In some experiments, the OSTEOASSAY™ plate was compared to dentin discs (ALPCO Diagnostics). In other assays, primary human osteoclast precursors were exposed to inhibitors of osteoclast function (alendronate or calcitonin) for 48-72 hours and then assayed for bone resorptive activity.
Primary human osteoclast precursors were seeded at 10,000 cells/well and cultured in medium containing M-CSF and soluble RANK ligand. After 5 days of culture, the medium was renewed +/−1 nM calcitonin or +/−various concentrations of alendronate. […]

In general, IC50 refers to the point on the concentration scale where inhibition reaches its midpoint.

Consider calcitonin, for which, for the setting “1 nM calcitonin added after 5 days of culture, FIG. 3”, the “inhibition of in vitro bone resorption (CTx collagen resorption product)” value was “effectively inhibits in vitro bone resorption”.
Regarding `NCCCC(O)(P(=O)(O)O)P(=O)(O)O` [alendronate], the IC50 (Homo sapiens, Osteoclast, various concentrations added after 5 days of culture, FIG. 4, read-out: IC50 for inhibition of bone resorption (CTx collagen resorption product)) was about 1000 nM.

The values are drawn from patent US20080176264A1, “Osteoclast Culture Vessels and Methods of Use” (priority 2004, published 2008).
